Source: patent US20230416227A1, “PLASMA KALLIKREIN INHIBITORS” (Merck Sharp & Dohme LLC, priority 2020, published 2023)
pIC50: −log10 of the molar value.

Assays:
Human plasma kallikrein = target: T1, Human plasma kallikrein (Homo sapiens, UniProt P03952); assay: Plasma Kallikrein Assay; type: biochemical; conditions: purified Human plasma kallikrein 0.5 nM, substrate Acetyl-K-P-R-AFC, pH 7.4
T1 construct: yields a heavy chain (371 amino acids) and a light chain (248 amino acids); purchased Enzyme Research Laboratories

human factor XIa = human factor XIa (Homo sapiens, UniProt P03951); assay: Factor XIa Assay; type: biochemical; conditions: human factor XIa 0.04 nM, substrate GPR-AFC, 30 min pre-incubation at 25° C., pH 7.4; read-out: FXIa IC50
Sequence of human factor XIa (P03951 388-625 limits assumed): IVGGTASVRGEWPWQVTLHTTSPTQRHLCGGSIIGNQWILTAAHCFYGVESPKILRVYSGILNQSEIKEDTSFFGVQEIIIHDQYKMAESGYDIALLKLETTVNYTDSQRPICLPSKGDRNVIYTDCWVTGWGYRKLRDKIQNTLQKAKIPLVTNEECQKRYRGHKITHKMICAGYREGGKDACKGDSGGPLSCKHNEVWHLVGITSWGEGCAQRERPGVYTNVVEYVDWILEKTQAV
Sequence of human factor XIa (P03951 19-387 partner limits assumed): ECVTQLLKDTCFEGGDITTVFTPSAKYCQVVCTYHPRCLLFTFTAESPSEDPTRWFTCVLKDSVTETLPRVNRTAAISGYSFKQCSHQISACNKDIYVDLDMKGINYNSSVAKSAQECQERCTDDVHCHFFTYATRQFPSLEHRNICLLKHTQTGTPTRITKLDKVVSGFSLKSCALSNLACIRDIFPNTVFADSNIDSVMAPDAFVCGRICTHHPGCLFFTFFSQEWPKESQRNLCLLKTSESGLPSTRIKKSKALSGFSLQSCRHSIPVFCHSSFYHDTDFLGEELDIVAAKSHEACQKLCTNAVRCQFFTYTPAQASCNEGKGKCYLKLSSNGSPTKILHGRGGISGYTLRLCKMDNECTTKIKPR

T1 sequence (P03952 391-638 limits assumed): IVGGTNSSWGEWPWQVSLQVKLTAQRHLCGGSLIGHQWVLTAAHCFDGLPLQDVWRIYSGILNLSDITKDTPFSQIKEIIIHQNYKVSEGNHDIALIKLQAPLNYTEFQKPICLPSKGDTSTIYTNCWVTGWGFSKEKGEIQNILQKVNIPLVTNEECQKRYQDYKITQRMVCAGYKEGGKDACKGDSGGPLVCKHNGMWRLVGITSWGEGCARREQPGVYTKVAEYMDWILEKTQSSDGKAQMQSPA
T1 sequence (P03952 20-390 partner limits assumed): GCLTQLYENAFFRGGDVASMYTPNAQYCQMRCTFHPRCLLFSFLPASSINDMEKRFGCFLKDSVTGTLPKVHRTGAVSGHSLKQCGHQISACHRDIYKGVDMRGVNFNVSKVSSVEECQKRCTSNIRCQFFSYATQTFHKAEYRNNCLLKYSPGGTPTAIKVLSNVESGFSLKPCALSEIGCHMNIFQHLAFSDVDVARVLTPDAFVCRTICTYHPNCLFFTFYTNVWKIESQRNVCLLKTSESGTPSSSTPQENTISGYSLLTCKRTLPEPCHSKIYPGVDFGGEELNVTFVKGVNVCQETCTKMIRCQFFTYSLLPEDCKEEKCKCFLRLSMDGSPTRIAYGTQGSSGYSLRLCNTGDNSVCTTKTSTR

| Compound | pIC50 (Human plasma kallikrein) | pIC50 (human factor XIa) |
| --- | --- | --- |
| N#Cc1cc(N2CCC2)ncc1Cn1cc(NC(=O)c2cncc(-c3c(C(F)F)ccc(Cl)c3F)n2)cn1 [Example 16, N-(1-((6-(Azetidin-1-yl)-4-cyanopyridin-3-yl)methyl)-1H-pyrazol-4-yl)-6-(3-chloro-6-(difluoromethyl)-2-fluorophenyl)pyrazine-2-carboxamide] | 8.08 | 5.98 |
| CC(c1ccc(N2CCC2)nc1)n1cc(NC(=O)c2cncc(-c3c(C(F)F)ccc(Cl)c3F)n2)cn1 (single isomer, unassigned) [Example 37, (S or R)-N-(1-(1-(6-(azetidin-1-yl)pyridin-3-yl)ethyl)-1H-pyrazol-4-yl)-6-(3-chloro-6-(difluoromethyl)-2-fluorophenyl)pyrazine-2-carboxamide] | 7.59 | 5.57 |
| CC(c1cnc(N2CCC2)cn1)n1cc(NC(=O)c2cncc(-c3c(C(F)F)ccc(Cl)c3F)n2)cn1 (single isomer, unassigned) [Example 30, (R or S)-N-(1-(1-(5-(azetidin-1-yl)pyrazin-2-yl)ethyl)-1H-pyrazol-4-yl)-6-(3-chloro-6-(difluoromethyl)-2-fluorophenyl)pyrazine-2-carboxamide] | 8.11 | 5.66 |
| [2H]C(C)(c1cnc(N2CCC2)nc1)n1cc(NC(=O)c2cncc(-c3c(C(F)F)ccc(Cl)c3F)n2)cn1 (single isomer, unassigned) [Example 42, (S or R)-N-(1-(1-(2-(azetidin-1-yl)pyrimidin-5-yl)ethyl-1-d)-1H-pyrazol-4-yl)-6-(3-chloro-6-(difluoromethyl)-2-fluorophenyl)pyrazine-2-carboxamide] | 8.33 | 5.95 |
| CC(c1cnc(N2CC3CC3C2)nc1)n1cc(NC(=O)c2nc(-c3c(C(F)F)ccc(Cl)c3F)cnc2N(C)C)cn1 (single isomer, unassigned) [Example 34, N-(1-((1R or 1S)-1-(2-(3-azabicyclo[3.1.0]hexan-3-yl)pyrimidin-5-yl)ethyl)-1H-pyrazol-4-yl)-6-(3-chloro-6-(difluoromethyl)-2-fluorophenyl)-3-(dimethylamino)pyrazine-2-carboxamide] | 7.55 | 5.48 |
| O=C(Nc1cnn(Cc2cnc(N3CCC3)nc2)c1)c1nc(-c2c(C(F)F)ccc(Cl)c2F)cnc1C(F)F [Example 136, N-(1-((2-(Azetidin-1-yl)pyrimidin-5-yl)methyl)-1H-pyrazol-4-yl)-6-(3-chloro-6-(difluoromethyl)-2-fluorophenyl)-3-(difluoromethyl)pyrazine-2-carboxamide] | 8.07 | 6.08 |

Stronger by pIC50 (Human plasma kallikrein), values ahead:

| pIC50 (Human plasma kallikrein) | pIC50 (human factor XIa) | Compound |
| --- | --- | --- |
| 8.68 | 5.38 | Cc1nc(N2CCC2)cnc1C(C)n1cc(NC(=O)c2cncc(-c3c(C(F)F)ccc(Cl)c3F)n2)cn1 (single isomer, unassigned) [Example 41, (S or R)-N-(1-(1-(5-(azetidin-1-yl)-3-methylpyrazin-2-yl)ethyl)-1H-pyrazol-4-yl)-6-(3-chloro-6-(difluoromethyl)-2-fluorophenyl)pyrazine-2-carboxamide] |
| 9.15 | 5.24 | CC(c1cnc(N2CC[C@H]2CN2CCC(C)(O)C2)nc1)n1cc(NC(=O)c2cncc(-c3c(C(F)F)ccc(Cl)c3F)n2)cn1 (stereo partly drawn) [Example 166, 6-(3-Chloro-6-(difluoromethyl)-2-fluorophenyl)-N-(1-(1-(2-((2S)-2-((3-hydroxy-3-methylpyrrolidin-1-yl)methyl)azetidin-1-yl)pyrimidin-5-yl)ethyl)-1H-pyrazol-4-yl)pyrazine-2-carboxamide] |
| 9.22 | 6.19 | O=C(Nc1cnn(Cc2cnc(N3C[C@H]4C[C@H]4[C@H]3CNCC(O)C(F)F)nc2)c1)c1cncc(-c2c(C(F)F)ccc(Cl)c2F)n1 (stereo partly drawn) [Example 150, 6-(3-Chloro-6-(difluoromethyl)-2-fluorophenyl)-N-(1-((2-((1R,2S,5S)-2-(((3,3-difluoro-2-hydroxypropyl)amino)methyl)-3-azabicyclo[3.1.0]hexan-3-yl)pyrimidin-5-yl)methyl)-1H-pyrazol-4-yl)pyrazine-2-carboxamide] |
| 8.70 | 5.20 | CC(c1cnc(N2CC[C@H]2CN2C[C@@H](O)[C@H](O)C2)nc1)n1cc(NC(=O)c2cncc(-c3c(C(F)F)ccc(Cl)c3F)n2)cn1 (stereo partly drawn) [Example 168, 6-(3-Chloro-6-(difluoromethyl)-2-fluorophenyl)-N-(1-(1-(2-((S)-2-(((3R,4R)-3,4-dihydroxypyrrolidin-1-yl)methyl)azetidin-1-yl)pyrimidin-5-yl)ethyl)-1H-pyrazol-4-yl)pyrazine-2-carboxamide] |
| 8.62 | 5.95 | CC(c1cnc(N2C[C@H]3C[C@H]3C2C(=O)N(C)C)nc1)n1cc(NC(=O)c2cncc(-c3c(C(F)F)ccc(Cl)c3F)n2)cn1 (single isomer, unassigned) [Example 200, (1R,2S,5S or 1S,2R,5R)-3-(5-((R or S)-1-(4-(6-(3-Chloro-6-(difluoromethyl)-2-fluorophenyl)pyrazine-2-carboxamido)-1H-pyrazol-1-yl)ethyl)pyrimidin-2-yl)-N,N-dimethyl-3-azabicyclo[3.1.0]hexane-2-carboxamide] |
